According to article PMC10011573, “Development of novel broad-spectrum antimicrobial lipopeptides derived from plantaricin NC8 β” (Scientific Reports, 2023):
Like-named read-outs stand apart in the source and are kept apart here. Residues, ends and D or L forms follow the SMILES beside them. No end group written: not given here. *: point of attachment. Pentadecanoyl = CCCCCCCCCCCCCCC(=O)*; Decanoyl = CCCCCCCCCC(=O)*; Octanoyl = CCCCCCCC(=O)*; Butyryl = CCCC(=O)*

How the values were obtained:
[1] = Carboxyfluorescein release assay, mammalian liposome model; assay type: biochemical; conditions: 65:5:30 POPC:POPS:Chol. liposomes, 25 µM lipid, 10 mM PBS pH 7.4, 10^–5–10^2 µM peptide, 60 min, fluorescence, Hill fit, n = 3; read-out: EC50 Mammalial (concentration that triggers 50% CF release)
Method: (§1) Liposomes were prepared by thin-film hydration method. Lipids stock solutions (10 mg/ml in chloroform, Avanti Polar Lipids, Inc., Alabaster, United States) of the lipids 1-palmitoyl-2-oleoyl-sn-glycero-3-phosphocholine (POPC), 1-palmitoyl-2-oleoyl-sn-glycero-3-phospho-L-serine (POPS), 1-Hexadecanoyl-2-(9Z-Octadecenoyl)-sn-Glycero-3-Phosphoglycerol (POPG) and Cholesterol (Chol) were employed. Bacterial liposomes were prepared with a 75:25 ratio of POPC:POPG and mammalian liposomes were prepared with a 65:5:30 ratio of POPC:POPS:Chol. Lipid solutions were thoroughly homogenised, and the solvent was evaporated with the use of a dry N2 steam to yield a lipid cake. […] The lipid film was subsequently hydrated with a 5(6)-CF solution (50 mM CF, 10 mM PBS, 90 mM NaCl, pH 7.4). Following a 10 min incubation on orbital shaker (50 min^−1), the solution was vortexed for 60 s on medium speed. A mini extruder (Avanti Polar Lipids, Inc., United States) was employed and 21 extrusions were performed through a 0.1 µm filter membrane (Nuclepore track-etched hydrophilic membrane, Cytiva, Whatman, MA, United States), resulting in monodispersed unilamellar liposomes. Directly before use the liposomes were purified from unencapsulated CF by filtration through a gel filtration column (PD Minitrap G-25 column, Cytiva, United States), against PBS buffer (10 mM, pH 7.4).
(§2) Peptide and lipopeptide activity towards liposome models were evaluated using a carboxyfluorescein (CF) release assay. Liposomes were diluted in PBS (10 mM, pH 7.4) to a final lipid concentration of 25 µM and incubated with peptides (10^–5–10^2 µM) in a 96-well plate (n = 3). CF release was monitored using an Infinite M1000 PRO plate reader every 2.5 min for 1 h. Full (100%) CF release was obtained by addition of 1% Triton X-100 solution followed by 10 min incubation. CF release percentage was evaluated according to the formula 100 * (F − F0)/(FT − F0), where F indicates the instantaneous fluorescence, FT the total fluorescence and F0 the background fluorescence prior to peptide addition. Data were fitted to a Hill-1 curve using MATLAB R2019a (The MathWorks Inc., Natick, Massachusetts, United States) and the half maximum effective concentration (EC50) was extracted.

[2] = Carboxyfluorescein release assay, bacterial liposome model; assay type: biochemical; conditions: for EC50: 75:25 POPC:POPG liposomes, 25 µM lipid, 10 mM PBS pH 7.4, 10^–5–10^2 µM peptide, 60 min, fluorescence, Hill fit, n = 3, read-out: EC50 Bacterial (concentration that triggers 50% CF release)
Method: as §1, §2

E. coli (K-12 MG1655) = test system: E. coli (K-12 MG1655)
Method: (§3) S. aureus (ATCC 29213, MSSA, ATCC, Manassas, VA), E. coli (K-12 MG1655) and clinical isolates of S. aureus, E. coli, E. faecium, K. pneumoniae, A. baumannii, P. aeruginosa and E. cloacae obtained from the Department of Laboratory Medicine at Örebro University Hospital were streaked on Luria–Bertani (LB) agar plates and incubated at 37 °C overnight. Single colonies were inoculated into 5 ml of LB broth and incubated on a shaker (400 rpm) at 37 °C overnight. The bacterial concentrations were determined by viable count and were adjusted to correlate with approximately 10^9 CFU/ml.
(§4) The broth microdilution method was used to determine minimal inhibitory concentration (MIC) and minimal bactericidal concentration (MBC), in accordance with the EUCAST standards for the broth microdilution method. Two-fold serial dilutions of the lipopeptides were used, and the final concentrations ranged from 0.19 to 100 µM. In brief, two-fold serial dilutions of the lipopeptides were performed in a 96-well plate in PBS, with a final volume of 100 µl per well, after which 100 µl of LB-broth media containing approximately 5 × 10^5 CFU/ml of bacteria was added to each well. The plate was then incubated for 20 h in 37 °C on a shaker (400 rpm). The effect of lipopeptide-antibiotic combinations was investigated by performing checkerboard assays. The assays were performed in accordance with the MIC and MBC tests conducted above, but with horizontal and longitudinal two-fold serial dilutions of the tested compounds. […] The fractional inhibitory concentration (FIC) and fractional bactericidal concentration (FBC) were calculated by the equation (MIC or MBC of peptide in combination/MIC or MBC of peptide alone) + (MIC or MBC of antibiotic in combination/MIC or MBC of antibiotic alone). Synergy was defined as FIC/FBC ≤ 0.5, additive when 0.5 < FIC/FBC ≤ 1, indifferent when 1 < FIC/FBC < 2 and antagonistic when FIC/FBC ≥ 2. All experiments were repeated at least three times.

[3] = test system: S. aureus (ATCC 29213, MSSA)
Method: as §3, §4

[4] = Table 3, K-12 MG1655, broth microdilution, 50:50 PBS/LB-broth, 200 µL, 20 h, 37 °C
[5] = Table 3, ATCC 29213, broth microdilution, 50:50 PBS/LB-broth, 200 µL, 20 h, 37 °C

Molecule	EC50 [1] [nM]	EC50 [2] [nM]	E. coli MBC (E. coli (K-12 MG1655); K-12, 20 h) [µM]	E. coli MIC (E. coli (K-12 MG1655); K-12, 20 h) [µM]	S. aureus MBC ([3]; ATCC 29213, 20 h) [µM]	S. aureus MIC ([3]; ATCC 29213, 20 h) [µM]	further results
CCCC(=O)N[C@@H](CC(C)C)C(=O)NCC(=O)N[C@H](C(=O)N[C@@H](CCCCN)C(=O)N[C@H](C(=O)N[C@@H](CC(C)C)C(=O)N[C@@H](Cc1c[nH]c2ccccc12)C(=O)N[C@@H](CO)C(=O)N[C@@H](C)C(=O)N[C@@H](Cc1ccc(O)cc1)C(=O)N[C@@H](CCCCN)C(=O)N[C@@H](Cc1c[nH]cn1)C(=O)N[C@@H](CCCNC(=N)N)C(=O)N[C@@H](CCCCN)C(=O)N[C@H](C(=O)N[C@H](C(N)=O)[C@@H](C)CC)[C@@H](C)O)[C@@H](C)CC)[C@@H](C)CC [L-6-C4] (Butyryl-LGIKILWSAYKHRKTI-NH2)	> 10000	110	25	12.5	25	12.5	–
CCCCCCCC(=O)N[C@@H](CC(C)C)C(=O)NCC(=O)N[C@H](C(=O)N[C@@H](CCCCN)C(=O)N[C@H](C(=O)N[C@@H](CC(C)C)C(=O)N[C@@H](Cc1c[nH]c2ccccc12)C(=O)N[C@@H](CO)C(=O)N[C@@H](C)C(=O)N[C@@H](Cc1ccc(O)cc1)C(=O)N[C@@H](CCCCN)C(=O)N[C@@H](Cc1c[nH]cn1)C(=O)N[C@@H](CCCNC(=N)N)C(=O)N[C@@H](CCCCN)C(=O)N[C@H](C(=O)N[C@H](C(N)=O)[C@@H](C)CC)[C@@H](C)O)[C@@H](C)CC)[C@@H](C)CC [L-6-C8] (Octanoyl-LGIKILWSAYKHRKTI-NH2)	940	190	12.5	12.5	3.1	3.1	–
CCCCCCCCCC(=O)N[C@@H](CC(C)C)C(=O)NCC(=O)N[C@H](C(=O)N[C@@H](CCCCN)C(=O)N[C@H](C(=O)N[C@@H](CC(C)C)C(=O)N[C@@H](Cc1c[nH]c2ccccc12)C(=O)N[C@@H](CO)C(=O)N[C@@H](C)C(=O)N[C@@H](Cc1ccc(O)cc1)C(=O)N[C@@H](CCCCN)C(=O)N[C@@H](Cc1c[nH]cn1)C(=O)N[C@@H](CCCNC(=N)N)C(=O)N[C@@H](CCCCN)C(=O)N[C@H](C(=O)N[C@H](C(N)=O)[C@@H](C)CC)[C@@H](C)O)[C@@H](C)CC)[C@@H](C)CC [L-6-C10] (Decanoyl-LGIKILWSAYKHRKTI-NH2)	680	1100	> 100	> 100	> 100	50	–
CCCCCCCCCCCCCCC(=O)N[C@@H](CC(C)C)C(=O)NCC(=O)N[C@H](C(=O)N[C@@H](CCCCN)C(=O)N[C@H](C(=O)N[C@@H](CC(C)C)C(=O)N[C@@H](Cc1c[nH]c2ccccc12)C(=O)N[C@@H](CO)C(=O)N[C@@H](C)C(=O)N[C@@H](Cc1ccc(O)cc1)C(=O)N[C@@H](CCCCN)C(=O)N[C@@H](Cc1c[nH]cn1)C(=O)N[C@@H](CCCNC(=N)N)C(=O)N[C@@H](CCCCN)C(=O)N[C@H](C(=O)N[C@H](C(N)=O)[C@@H](C)CC)[C@@H](C)O)[C@@H](C)CC)[C@@H](C)CC [L-6-C15] (Pentadecanoyl-LGIKILWSAYKHRKTI-NH2)	870	19400	> 100	> 100	> 100	> 100	–
Ac-ILWSAYKHR-NH2 [S2]	–	–	> 100	> 100	> 100	> 100	–
Ac-KILWSAYKHR-NH2 [S1]	–	–	> 100	> 100	> 100	> 100	–
Ac-LWSAYKHR-NH2 [S3]	–	–	> 100	> 100	> 100	> 100	–
Ac-WSAYK-NH2 [S6]	–	–	> 100	> 100	> 100	> 100	–
Ac-WSAYKH-NH2 [S5]	–	–	> 100	> 100	> 100	> 100	–
Ac-WSAYKHR-NH2 [S4]	–	–	> 100	> 100	> 100	> 100	–
PEG800-LGIKILWSAYKHRKTI [L-6-Peg800]	–	–	–	–	–	–	E. coli MBC (E. coli (K-12 MG1655); [4]): > 100 µM; E. coli MIC (E. coli (K-12 MG1655); [4]): > 100 µM; S. aureus MBC [3, 5]: > 100 µM; S. aureus MIC [3, 5]: > 100 µM
SVPTSVYTLGIKILWSAYKHRKTIEKSFNKGFYH [PLNC8 β, reference compound]	1260	20	–	–	–	–	CF release ([2]; bacterial-mimicking liposomes, peptide 100 pM, after 60 min of incubation): ~ 20%; E. coli MIC (E. coli (K-12 MG1655); Table 2, K-12 MG1655, broth microdilution, 50:50 PBS/LB-broth, 200 µL, 20 h, 37 °C): > 100 µM; E. coli MBC (E. coli (K-12 MG1655); Table 2, K-12 MG1655, broth microdilution, 50:50 PBS/LB-broth, 20 h, 37 °C, 10 µl drops on LB-agar): > 100 µM; E. coli MBC (E. coli (K-12 MG1655); [4]): > 100 µM; S. aureus MBC ([3]; Table 2, ATCC 29213, broth microdilution, 50:50 PBS/LB-broth, 20 h, 37 °C, 10 µl drops on LB-agar): > 100 µM; S. aureus MIC ([3]; Table 2, ATCC 29213, broth microdilution, peptide in PBS, bacteria in LB-broth, 200 µL, 50:50 PBS/broth, ~5 × 10^5 CFU/ml, 20 h, 37 °C, repeated at least three times): > 100 µM; S. aureus MBC [3, 5]: > 100 µM; S. aureus MIC [3, 5]: > 100 µM
